Entries after “also recorded” stand apart in the source; their conditions may differ.
What was measured:
[1] = molecular target: EphB2-EphrinB2 tetramer (Homo sapiens, UniProt P29323); assay: mass photometry; format: binding, mouse EphrinB2; details: 216 kDa without
Protocol: To verify the kinetic studies using the Octet system, mass photometry (MP) that uses optical detection to measure the mass of individual proteins and protein complexes in solution was employed. MP was used to determine the mass of EphB2 and EphrinB2 ectodomain proteins individually or after being combined and allowed to associate into tetramers for a 24 hr period either without or with 10 or 50 μM concentrations of the A20 salt (FIG. 26). For these experiments His-tagged proteins, human hEphB2-His and murine mEB2-His were used. […] During MP experiments EphB2 and EB2 when analyzed alone would each measure as a homodimer, and when the EphB2 and EphrinB2 proteins are combined, the average mass of the protein species shifted to a larger 216 kDa species (FIG. 26C). The size was as expected if two EphB2 and two EphrinB2 molecules complexed together into the stable circular tetramer (130+83=213 kDa). […] It is important to understand that the MP experiments described here are powerful, but also temporally limited because we can really only assess the protein species after interaction homeostasis has been achieved and for this experiment the proteins and A20 were allowed to incubate together for 24 hr before masses were determined.

[2] = molecular target: pre-formed EphrinB2-EphB2 tetramer (Homo sapiens, UniProt P29323); assay: Octet competition of pre-existing tetramers, human EphrinB2-EphB2; format: binding; details: 2, 10, 50 μM
Sequence of pre-formed EphrinB2-EphB2 tetramer (P29323 19-543 limits assumed): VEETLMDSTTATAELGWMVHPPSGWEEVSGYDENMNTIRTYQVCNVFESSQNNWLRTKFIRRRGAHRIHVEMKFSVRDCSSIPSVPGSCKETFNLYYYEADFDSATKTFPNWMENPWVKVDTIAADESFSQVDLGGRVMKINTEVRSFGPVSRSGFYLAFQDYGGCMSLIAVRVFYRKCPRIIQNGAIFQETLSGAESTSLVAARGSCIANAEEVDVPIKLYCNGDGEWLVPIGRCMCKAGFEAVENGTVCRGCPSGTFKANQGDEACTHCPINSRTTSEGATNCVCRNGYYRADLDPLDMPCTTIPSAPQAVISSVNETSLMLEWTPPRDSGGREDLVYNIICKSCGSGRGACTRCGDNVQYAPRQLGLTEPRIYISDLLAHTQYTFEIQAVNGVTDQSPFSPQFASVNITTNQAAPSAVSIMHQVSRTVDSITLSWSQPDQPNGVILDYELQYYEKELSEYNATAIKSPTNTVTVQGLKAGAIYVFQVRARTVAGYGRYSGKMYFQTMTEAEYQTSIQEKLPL
Protocol: (§1) Biophysical studies were conducted to explore if A20 is able to disrupt pre-existing stable tetramers, focusing on interactions of immobilized human EphrinB2 binding to soluble human EphB1 and EphB2, and immobilized mouse EphB2 binding to mouse EphrinB2 (FIGS. 29A-29C). In these experiments, sensor-chip immobilized proteins were first exposed to 50 nM of their soluble target protein for an 800 sec association step and 1,000 sec dissociation step to generate pre-formed stable tetramers, which were then subjected to a 1,000 sec competition step that included either 0, 2, 10, or 50 μM concentrations of A20 salt compound. […] The ability of A20 to disrupt pre-existing tetramers was most pronounced for human EB2-EphB2 and cognate murine EphB2-EB2 experiments and indicated a gradual ongoing dose-dependent decline in tetramers throughout the 1,000 sec competition step (and beyond if allowed) and irrespective of whether the human EphrinB2 or murine EphB2 was the immobilized protein.

[3] = test system: DH neurons in the spinal cord; assay: dorsal horn neuron activation (Trap2/Ai9) after CFA; format: in vivo, mouse; details: listed as A20
Protocol: FIG. 65 depicts development of a quantitative fluorescent method to assess the activation of DH neurons in the spinal cord following a chronic, […]. The left hind paws of EphB1+/+ wild-type, EphB1+/− heterozygous, and EphB1−/− homozygous mutant mice that also contained the Trap2/CreERT2 driver and the Ai9/tdTomato reporter were injected once with CFA to induce inflammatory pain. Four hours later, mice were then injected IP with 4-hydroxy-tamoxifen (4-OHT, 40 mg/kg in sunflower seed oil) to activate Cre recombinase and permanently label with red fluorescence the neurons that were activated during the short window of time (~8 hr) until the 4-OHT is degraded. Fourteen days later, animals were perfused with 4% paraformaldehyde dissolved in PBS and then […] thick vibratome serial sections of the lumbar spinal cord were obtained, mounted, and viewed under fluorescence microscopy to identify red labeled neurons in the superficial dorsal horn of the spinal cords that were activated between ~4-12 hr after the CFA induction of inflammatory pain. Superficial red neurons were counted on the left (injured) and right (uninjured) side dorsal horns (boxed areas) from 8-12 serial sections along the span of lumbar cord of each animal. […]

[4] = molecular target: T1, EphB2-His-Fc / EB2-His (Mus musculus, UniProt P54763); assay: pulldown EB2-His to EphB2-His-Fc; format: binding
T1 construct: a dual-tagged EphB2-His-Fc ectodomain protein; mouse EB2-His residues 18-232; purchased R&D Systems (EphB-Fc); Sino Biologicals (EphrinB-His)
T1 sequence (P54763 19-543 limits assumed): as the sequence (P29323 19-543 limits assumed) above, with S104L, S154N, Q520K counted along it

[5] = molecular target: pre-formed EphrinB2-EphB1 tetramer (Homo sapiens, UniProt P54762); assay: Octet competition of pre-existing tetramers, human EphrinB2-EphB1; format: binding; details: 2, 10, 50 μM
Sequence of pre-formed EphrinB2-EphB1 tetramer (P54762 18-540 limits assumed): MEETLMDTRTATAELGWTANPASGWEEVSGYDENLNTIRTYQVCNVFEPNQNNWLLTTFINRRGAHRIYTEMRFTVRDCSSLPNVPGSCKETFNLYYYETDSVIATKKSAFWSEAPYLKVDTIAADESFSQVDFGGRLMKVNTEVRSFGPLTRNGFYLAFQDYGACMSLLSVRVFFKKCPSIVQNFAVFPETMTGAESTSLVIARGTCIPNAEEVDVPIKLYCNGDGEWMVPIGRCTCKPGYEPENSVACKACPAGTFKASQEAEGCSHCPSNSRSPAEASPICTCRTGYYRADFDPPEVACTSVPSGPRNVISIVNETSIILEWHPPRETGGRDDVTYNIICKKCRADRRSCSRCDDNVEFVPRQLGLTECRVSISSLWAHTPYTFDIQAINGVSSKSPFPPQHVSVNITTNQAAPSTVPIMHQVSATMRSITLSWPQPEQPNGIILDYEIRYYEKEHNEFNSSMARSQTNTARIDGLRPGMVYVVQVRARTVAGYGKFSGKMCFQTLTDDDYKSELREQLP
Protocol: as §1

Sequence of EphB2-EphrinB2 tetramer (P29323 19-543 limits assumed): as the sequence (P29323 19-543 limits assumed) above

**Q.** Which results are given for Oc1c(Br)cc(CN2CCOCC2)c2cccnc12 [Compound 5, 7-bromo-5-(morpholinomethyl)quinolin-8-ol]?
**A.** average mass of protein species ([1]; 10 μM A20 salt): 158 kDa; average mass of protein species ([1]; 50 μM A20 salt): 150 kDa; competition of pre-formed tetramers [2]: able to compete away in a dose-dependent manner a significant amount of the stable pre-formed tetramer complexes; DH neuron activation [3]: significantly fewer labeled neurons in the injured side; also recorded: dramatically reduced DH neuron activation; pulldown EphB2 binding to EB2-His [4]: strong dose-dependent ability to antagonize EphB2-His-Fc protein binding to EB2-His; IC50 ([4]; pulldown, EphB2): ~10 µM; competition of pre-formed tetramers [5]: clearly disrupted in a dose-dependent fashion some of the pre-existing EB2-EphB1 tetramers
